Earlier results as cited in patent US20240041944A1, “OPTIMIZED INDIVIDUALIZED PREBIOTIC COMPOSITIONS” (ISOThrive LLC, priority 2016, published 2024).
Entries after “also recorded” stand apart in the source; their conditions may differ. Ends that are not written are not given here.

B1: Colicin E1: class III bacteriocin produced by E. coli (protein, UniProt P02978 1-522, looked up)
Colicin-E1: METAVAYYKDGVPYDDKGQVIITLLNGTPDGSGSGGGGGKGGSKSESSAAIHATAKWSTAQLKKTQAEQAARAKAAAEAQAKAKANRDALTQRLKDIVNEALRHNASRTPSATELAHANNAAMQAEDERLRLAKAEEKARKEAEAAEKAFQEAEQRRKEIEREKAETERQLKLAEAEEKRLAALSEEAKAVEIAQKKLSAAQSEVVKMDGEIKTLNSRLSSSIHARDAEMKTLAGKRNELAQASAKYKELDELVKKLSPRANDPLQNRPFFEATRRRVGAGKIREEKQKQVTASETRINRINADITQIQKAISQVSNNRNAGIARVHEAEENLKKAQNNLLNSQIKDAVDATVSFYQTLTEKYGEKYSKMAQELADKSKGKKIGNVNEALAAFEKYKDVLNKKFSKADRDAIFNALASVKYDDWAKHLDQFAKYLKITGHVSFGYDVVSDILKIKDTGDWKPLFLTLEKKAADAGVSYVVALLFSLLAGTTLGIWGIAIVTGILCSYIDKNKLNTINEVLGI
B2: Microcin E492: class IIa bacteriocin produced by K. pneumoniae (protein, UniProt Q9Z4N4 16-99, looked up)
Microcin E492: GETDPNTQLLNDLGNNMAWGAALGAPGGLGSAALGAAGGALQTVGQGLIDHGPVNVPIPVLIGPSWNGSGSGYNSATSSSGSGS
B3: Pyocin S2: class III bacteriocin produced by P. aeruginosa 42A (protein, UniProt Q06584 2-689, looked up)
Pyocin-S2: AVNDYEPGSMVITHVQGGGRDIIQYIPARSSYGTPPFVPPGPSPYVGTGMQEYRKLRSTLDKSHSELKKNLKNETLKEVDELKSEAGLPGKAVSANDIRDEKSIVDALMDAKAKSLKAIEDRPANLYTASDFPQKSESMYQSQLLASRKFYGEFLDRHMSELAKAYSADIYKAQIAILKQTSQELENKARSLEAEAQRAAAEVEADYKARKANVEKKVQSELDQAGNALPQLTNPTPEQWLERATQLVTQAIANKKKLQTANNALIAKAPNALEKQKATYNADLLVDEIASLQARLDKLNAETARRKEIARQAAIRAANTYAMPANGSVVATAAGRGLIQVAQGAASLAQAISDAIAVLGRVLASAPSVMAVGFASLTYSSRTAEQWQDQTPDSVRYALGMDAAKLGLPPSVNLNAVAKASGTVDLPMRLTNEARGNTTTLSVVSTDGVSVPKAVPVRMAAYNATTGLYEVTVPSTTAEAPPLILTWTPASPPGNQNPSSTTPVVPKPVPVYEGATLTPVKATPETYPGVITLPEDLIIGFPADSGIKPIYVMFRDPRDVPGAATGKGQPVSGNWLGAASQGEGAPIPSQIADKLRGKTFKNWRDFREQFWIAVANDPELSKQFNPGSLAVMRDGGAPYVRESEQAGGRIKIEIHHKVRIADGGGVYNMGNLVAVTPKRHIEIHKGGK
B4: Colicin E3: class III bacteriocin produced by E. coli (protein, UniProt P00646 1-551, looked up)
Colicin E3: MSGGDGRGHNTGAHSTSGNINGGPTGLGVGGGASDGSGWSSENNPWGGGSGSGIHWGGGSGHGNGGGNGNSGGGSGTGGNLSAVAAPVAFGFPALSTPGAGGLAVSISAGALSAAIADIMAALKGPFKFGLWGVALYGVLPSQIAKDDPNMMSKIVTSLPADDITESPVSSLPLDKATVNVNVRVVDDVKDERQNISVVSGVPMSVPVVDAKPTERPGVFTASIPGAPVLNISVNNSTPAVQTLSPGVTNNTDKDVRPAGFTQGGNTRDAVIRFPKDSGHNAVYVSVSDVLSPDQVKQRQDEENRRQQEWDATHPVEAAERNYERARAELNQANEDVARNQERQAKAVQVYNSRKSELDAANKTLADAIAEIKQFNRFAHDPMAGGHRMWQMAGLKAQRAQTDVNNKQAAFDAAAKEKSDADAALSSAMESRKKKEDKKRSAENNLNDEKNKPRKGFKDYGHDYHPAPKTENIKGLGDLKPGIPKTPKQNGGGKRKRWTGDKGRKIYEWDSQHGELEGYRASDGQHLGSFDPKTGNQLKGPDPKRNIKKYL

Columns and labels:
[1] = test system: head/neck tumors; details: head and neck, mice
[2] = test system: cancer cell lines
[3] = can be autoclaved at 115° C.
[4] = test system: Bacillus, Clostridium, Staphylococcus, Streptococcus, and Listeria spp.
[5] = test system: Salmonella spp.; details: co-administered with EDTA
[6] = test system: ascites tumors
[7] = test system: Caenorhabditis elegans; details: incubation with rifamycin

Molecule	Cancer Cell Type affected [2]	other results
Nisin: lantibiotic bacteriocin produced by Lactococcus lactis, 34-residue peptide (SEQ ID NO:2) (ITSISLCTPGCKTGALMGCNMKTATCNCSIHVSK; cysteine pairing not given here; also: lanthionine modifications; listed as Lactococcus lactis)	MCF7 (breast cancer),; also recorded: HepG2 (liver cancer)	effect on tumorigenesis / tumors [1]: reduce tumorigenesis; thermal stability [3]: thermally stable; antimicrobial activity [4]: active; activity against gram negative organisms [5]: effective
Bovicin HC5	MCF7 (breast cancer),; also recorded: HepG2 (liver cancer)	
CO[C@H]1/C=C/O[C@@]2(C)Oc3c(C)c(O)c4c(O)c(cc(O)c4c3C2=O)NC(=O)/C(C)=C\C=C\[C@H](C)[C@H](O)[C@@H](C)[C@@H](O)[C@@H](C)[C@H](OC(C)=O)[C@@H]1C [rifamycin]		cytotoxicity [6]: cytotoxic; increase of lifespan [7]: up to 60%
B1	MCF7 (breast cancer),; also recorded: HS913T (fibrosarcoma)	
B2	HeLa (cervical cancer),; also recorded: Jurkat (leukemia); also recorded: RJ2.25	
B3	HepG2 (liver cancer) and Im9	
B4	P388 (lymphoma) and HeLa	
